Patent US7645773B2, “Thiazoles as inhibitors of 11β-hydroxysteroid dehydrogenase” (Hoffmann-La Roche Inc., priority 2006, dated 2010)
pIC50: −log10 of the molar value.

Biological target: Purified human HSD1 (Homo sapiens, UniProt P28845)
Test: In vitro inhibition of 11β-HSD1, enzyme assay (time-resolved fluorescence)
Assay type: biochemical
Settings: purified human HSD1, cortisone substrate, 37° C. for 30 min
Method: Purified human HSD1 was diluted in 50 mM Tris-HCl, 100 mM NaCl, 0.1 mg/mL BSA, 0.02% Lubrol, 20 mM MgCl2, 10 mM glucose 6-phosphate, 0.4 mM NADPH, 60 U/mL glucose 6-phosphate dehydrogenase to a concentration of 1.5 μg/mL (Enzyme Solution). Cortisone (100 μM) in DMSO was diluted to 1 μM with 50 mM Tris-HCl, 100 mM NaCl (Substrate Solution). Test compounds (40 μM) in DMSO were diluted 3 fold in series in DMSO and further diluted 20 fold in Substrate Solution. Enzyme Solution (10 μL/well) was added into 384 well microtiter plates followed by diluted compound solutions (10 μL/well) and mixed well. Samples were then incubated at 37° C. for 30 min. EDTA/biotin-cortisol solution (10 μL/well) in 28 mM EDTA, 100 nM biotin-cortisol, 50 mM Tris-HCl, 100 mM NaCl was then added followed by 5 μL/well of anti-cortisol antibody (3.2 μg/mL) in 50 mM Tris-HCl, 100 mM NaCl, 0.1 mg/mL BSA and the solution was incubated at 37° C. for 30 min. Five μL per well of Eu-conjugated anti-mouse IgG (16 nM) and APC-conjugated streptavidin (160 nM) in 50 mM Tris-HCl, 100 mM NaCl, 0.1 mg/mL BSA was added and the solution was incubated at room temperature for 2 hours. Signals were quantitated by reading time-resolved fluorescence on a Victor 5 reader (Wallace).
Percent inhibition of HSD1 activity by an agent at various concentrations was calculated by the following formula: % Inhibition=100*[1−(Fs−Fb)/(Ft−Fb)], wherein: • Fs is the fluorescence signal of the sample which included the agent, • Fb is the fluorescence signal in the absence of HSD1 and agent, • Ft is the fluorescence signal in the presence of HSD1, but no agent.
The inhibitory activities of test compounds were determined by the IC50s, or the concentration of compound that gave 50% inhibition.

Sequence of Purified human HSD1 (P28845 whole entry): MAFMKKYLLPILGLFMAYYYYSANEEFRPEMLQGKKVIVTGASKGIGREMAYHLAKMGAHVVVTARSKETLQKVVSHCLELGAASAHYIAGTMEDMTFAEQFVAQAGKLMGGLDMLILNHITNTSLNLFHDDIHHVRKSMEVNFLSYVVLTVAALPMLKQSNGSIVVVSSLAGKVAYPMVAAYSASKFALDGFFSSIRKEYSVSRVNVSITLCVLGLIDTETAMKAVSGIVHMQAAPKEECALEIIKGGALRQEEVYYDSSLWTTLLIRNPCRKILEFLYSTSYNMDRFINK

Row | SMILES | pIC50
1 | COc1ccc(-c2nc(C(=O)N3CCCC4CCCCC43)cs2)cc1 (stereo not drawn) [Example 17, [2-(4-Methoxy-phenyl)-thiazol-4-yl]-(octahydro-quinolin-1-yl)-methanone] | 6.43
2 | O=C(c1csc(-c2ccccc2Cl)n1)N1CCCCCCC1 [Example 10, Azocan-1-yl-[2-(2-chloro-phenyl)-thiazol-4-yl]-methanone] | 7.30
3 | CC(=O)c1ccccc1-c1nc(C(=O)NC2CCCCCC2)cs1 [Example 144, 2-(2-Acetyl-phenyl)-thiazole-4-carboxylic acid cycloheptyl amide] | 7.49
4 | Cc1ccc(-c2nc(C(=O)N3CC(C)CC(C)C3)cs2)cc1 (stereo not drawn) [Example 33, (3,5-Dimethyl-piperidin-1-yl)-(2-p-tolyl-thiazol-4-yl)-methanone] | 6.44
5 | CCOc1cc(Cl)ccc1-c1nc(C(=O)N2CCCC3CCCCC32)cs1 (stereo not drawn) [Example 46, [2-(4-Chloro-2-ethoxy-phenyl)-thiazol-4-yl]-(octahydro-quinolin-1-yl)-methanone] | 6.99
6 | O=C(c1csc(-c2cccc(Cl)c2Cl)n1)N1CCCC[C@H]1c1ccccn1 [Example 96, [2-(2,3-Dichloro-phenyl)-thiazol-4-yl]-(S)-3,4,5,6-tetrahydro-2H-[2,2′]bipyridinyl-1-yl-methanone] | 7.40
7 | O=C(c1csc(-c2cccc(OCc3ccccc3)c2)n1)N1CCCC2CCCCC21 (stereo not drawn) [Example 61, [2-(3-Benzyloxy-phenyl)-thiazol-4-yl]-(octahydro-quinolin-1-yl)-methanone] | 6.34

The next lines start with the values.

Row | pIC50 | SMILES
8 | 6.47 | C[C@@H]1CCC[C@H](C)N1C(=O)c1csc(-c2ccccc2Cl)n1 [Example 115, [2-(2-Chloro-phenyl)-thiazol-4-yl]-((2S,6R)-2,6-dimethyl-piperidin-1-yl)-methanone]
9 | 6.14 | COc1ccccc1-c1nc(C(=O)N2CCCCC2C)cs1 (stereo not drawn) [Example 119, [2-(2-Methoxy-phenyl)-thiazol-4-yl]-(2-methyl-piperidin-1-yl)-methanone]
10 | 5.72 | O=C(N[C@H]1CC[C@H](O)CC1)c1csc(-c2ccccc2Cl)n1 [Example 124, 2-(2-Chloro-phenyl)-thiazole-4-carboxylic acid (4-hydroxy-cyclohexyl)-amide]
11 | 5.82 | COc1cccc(Cl)c1-c1nc(C(=O)N2CCCC3CCCCC32)cs1 (stereo not drawn) [Example 117, [2-(2-Chloro-6-methoxy-phenyl)-thiazol-4-yl]-(octahydro-quinolin-1-yl)-methanone]
12 | 6.03 | O=C(c1csc(-c2ccc(-c3ccccc3)cc2)n1)N1CCCC2CCCCC21 (stereo not drawn) [Example 180, (2-Biphenyl-4-yl-thiazol-4-yl)-(octahydro-quinolin-1-yl)-methanone]
